tested on: HCT116; experiment: In Vitro cytotoxicity measured by the cell colony formation assay; assay type: cell-based, human; details: HCT116 colony formation; 72 h with drug, colonies counted after 7 days; ID50 = concentration producing 50% inhibition of colony formation; read-out: IN VITRO ID 50 HCT116
How it was run: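 Four hundred cells per dish in McCoy's 5a medium with 10% FBS were allowed to attach for 5 h at 37 °C. They were then exposed to compound for 72 h at 37 °C, added as a 10× stock made fresh in medium. After HBSS rinsing and refeeding, colonies were counted after 7 days.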

| SMILES | IC50 [nM] |
| --- | --- |
| CCCC(=O)N[C@@H](c1cccs1)[C@@H](O)C(=O)O[C@H]1C[C@@]2(O)[C@@H](OC(=O)c3ccccc3)[C@@H]3[C@]4(OC(C)=O)CO[C@@H]4C[C@H](O)[C@@]3(C)C(=O)[C@H](OC(=O)CCC)C(=C1C)C2(C)C [Compound 3148] | < 1 |
| CC=CC(=O)OC1C(=O)C2(C)C(O)CC3OCC3(OC(C)=O)C2C(OC(=O)c2ccccc2)C2(O)CC(OC(=O)C(O)C(NC(=O)OC(C)(C)C)c3ccoc3)C(C)=C1C2(C)C (centres unmarked) [Compound 2380] | < 1 |
| CC=CC(=O)OC1C(=O)C2(C)C(O)CC3OCC3(OC(C)=O)C2C(OC(=O)c2ccccc2)C2(O)CC(OC(=O)C(O)C(NC(=O)OC(C)(C)C)c3ccncc3)C(C)=C1C2(C)C (centres unmarked) [Compound 2366] | < 1 |
| CC=CC(=O)OC1C(=O)C2(C)C(O)CC3OCC3(OC(C)=O)C2C(OC(=O)c2ccccc2)C2(O)CC(OC(=O)C(O)C(NC(=O)OC(C)(C)C)C(C)C)C(C)=C1C2(C)C (centres unmarked) [Compound 2413] | < 10 |

same assay, conditions: Homo sapiens, HCT-116; read-out: IN VITRO ID 50 HCT116

| SMILES | IC50 [nM] |
| --- | --- |
| CC(=O)O[C@@]12CO[C@@H]1C[C@H](O)[C@@]1(C)C(=O)[C@H](OC(=O)c3cccs3)C3=C(C)[C@@H](OC(=O)[C@H](O)[C@@H](NC(=O)OC(C)(C)C)c4ccco4)C[C@@](O)([C@@H](OC(=O)c4ccccc4)[C@H]21)C3(C)C [Compound 1892] | < 1 |
| CCCC(=O)O[C@H]1C(=O)[C@@]2(C)[C@H]([C@H](OC(=O)c3ccccc3)[C@]3(O)C[C@H](OC(=O)[C@H](O)[C@@H](NC(=O)OCC)c4cccs4)C(C)=C1C3(C)C)[C@]1(OC(C)=O)CO[C@@H]1C[C@@H]2O [Compound 3096] | < 1 |
| CCC(=O)O[C@H]1C(=O)[C@@]2(C)[C@H]([C@H](OC(=O)c3ccccc3)[C@]3(O)C[C@H](OC(=O)[C@H](O)[C@@H](NC(=O)OC(C)(C)C)c4cccnc4)C(C)=C1C3(C)C)[C@]1(OC(C)=O)CO[C@@H]1C[C@@H]2O [Compound 0517] | < 10 |
| CC(=O)O[C@@]12CO[C@@H]1C[C@H](O)[C@@]1(C)C(=O)[C@H](OC(=O)c3cccs3)C3=C(C)[C@@H](OC(=O)[C@H](O)[C@@H](NC(=O)OC(C)(C)C)C4CCC4)C[C@@](O)([C@@H](OC(=O)c4ccccc4)[C@H]21)C3(C)C [Compound 1970] | < 10 |
| CCC(=O)O[C@H]1C(=O)[C@@]2(C)[C@H]([C@H](OC(=O)c3ccccc3)[C@]3(O)C[C@H](OC(=O)[C@H](O)[C@@H](NC(=O)c4cccs4)c4cccs4)C(C)=C1C3(C)C)[C@]1(OC(C)=O)CO[C@@H]1C[C@@H]2O [Compound 3425] | < 1 |
| CCC(=O)OC1C(=O)C2(C)C(O)CC3OCC3(OC(C)=O)C2C(OC(=O)c2ccccc2)C2(O)CC(OC(=O)C(O)C(NC(=O)OC(C)(C)CC)c3ccco3)C(C)=C1C2(C)C (centres unmarked) [Compound 6522] | < 1 |
| CC(=O)O[C@@]12CO[C@@H]1C[C@H](O)[C@@]1(C)C(=O)[C@H](OC(=O)C3CC3)C3=C(C)[C@@H](OC(=O)[C@H](O)[C@@H](NC(=O)c4ccccc4)c4cccs4)C[C@@](O)([C@@H](OC(=O)c4ccccc4)[C@H]21)C3(C)C [Compound 0919] | < 1 |
| CC(=O)O[C@@]12CO[C@@H]1C[C@H](O)[C@@]1(C)C(=O)[C@H](OC(=O)C=C(C)C)C3=C(C)[C@@H](OC(=O)[C@H](O)[C@@H](NC(=O)OC(C)(C)C)c4ccncc4)C[C@@](O)([C@@H](OC(=O)c4ccccc4)[C@H]21)C3(C)C [Compound 2472] | < 1 |
| CC(=O)OC12COC1CC(O)C1(C)C(=O)C(OC(=O)C3CC3)C3=C(C)C(OC(=O)C(O)C(NC(=O)OCC(C)C)C4CC4)CC(O)(C(OC(=O)c4ccccc4)C21)C3(C)C (centres unmarked) [Compound 5232] | < 10 |
| CC(=O)O[C@@]12CO[C@@H]1C[C@H](O)[C@@]1(C)C(=O)[C@H](OC(=O)c3cccs3)C3=C(C)[C@@H](OC(=O)[C@H](O)[C@@H](NC(=O)OC(C)(C)C)c4ccccc4)C[C@@](O)([C@@H](OC(=O)c4ccccc4)[C@H]21)C3(C)C [Compound 1988] | < 10 |
| CCC(=O)O[C@H]1C(=O)[C@@]2(C)[C@H]([C@H](OC(=O)c3ccccc3)[C@]3(O)C[C@H](OC(=O)[C@H](O)[C@@H](NC(=O)OC(C)(C)C)C4CC4)C(C)=C1C3(C)C)[C@]1(OC(C)=O)CO[C@@H]1C[C@@H]2O [Compound 0578] | < 1 |
| CCC(=O)O[C@H]1C(=O)[C@@]2(C)[C@H]([C@H](OC(=O)c3ccccc3)[C@]3(O)C[C@H](OC(=O)[C@H](O)[C@@H](NC(=O)c4ccccc4)c4ccncc4)C(C)=C1C3(C)C)[C@]1(OC(C)=O)CO[C@@H]1C[C@@H]2O [Compound 0659] | < 1 |
| CCC(=O)O[C@H]1C(=O)[C@@]2(C)[C@H]([C@H](OC(=O)c3ccccc3)[C@]3(O)C[C@H](OC(=O)[C@H](O)[C@H](C=C(C)C)NC(=O)c4ccccc4)C(C)=C1C3(C)C)[C@]1(OC(C)=O)CO[C@@H]1C[C@@H]2O [Compound 0625] | < 1 |
| CC(=O)O[C@@]12CO[C@@H]1C[C@H](O)[C@@]1(C)C(=O)[C@H](OC(=O)C=C(C)C)C3=C(C)[C@@H](OC(=O)[C@H](O)[C@@H](NC(=O)OC(C)(C)C)c4ccco4)C[C@@](O)([C@@H](OC(=O)c4ccccc4)[C@H]21)C3(C)C [Compound 2488] | < 1 |
| CCOC(=O)N[C@@H](c1cccs1)[C@@H](O)C(=O)O[C@H]1C[C@@]2(O)[C@@H](OC(=O)c3ccccc3)[C@@H]3[C@]4(OC(C)=O)CO[C@@H]4C[C@H](O)[C@@]3(C)C(=O)[C@H](OC(=O)CC)C(=C1C)C2(C)C [Compound 3370] | < 1 |
| C/C=C/C(=O)N[C@@H](c1ccco1)[C@@H](O)C(=O)O[C@H]1C[C@@]2(O)[C@@H](OC(=O)c3ccccc3)[C@@H]3[C@]4(OC(C)=O)CO[C@@H]4C[C@H](O)[C@@]3(C)C(=O)[C@H](OC(=O)CC)C(=C1C)C2(C)C [Compound 3982] | < 1 |
| CC(=O)O[C@@]12CO[C@@H]1C[C@H](O)[C@@]1(C)C(=O)[C@H](OC(=O)C=C(C)C)C3=C(C)[C@@H](OC(=O)[C@H](O)[C@@H](NC(=O)OC(C)(C)C)c4cccs4)C[C@@](O)([C@@H](OC(=O)c4ccccc4)[C@H]21)C3(C)C [Compound 2503] | < 1 |
| CC(=O)O[C@@]12CO[C@@H]1C[C@H](O)[C@@]1(C)C(=O)[C@H](OC(=O)C3CC3)C3=C(C)[C@@H](OC(=O)[C@H](O)[C@@H](NC(=O)c4ccccc4)c4ccccc4)C[C@@](O)([C@@H](OC(=O)c4ccccc4)[C@H]21)C3(C)C [Compound 0937] | < 10 |
| CC(=O)O[C@@]12CO[C@@H]1C[C@H](O)[C@@]1(C)C(=O)[C@H](OC(=O)C3CC3)C3=C(C)[C@@H](OC(=O)[C@H](O)[C@@H](NC(=O)OC(C)(C)C)c4ccoc4)C[C@@](O)([C@@H](OC(=O)c4ccccc4)[C@H]21)C3(C)C [Compound 2781] | < 1 |
| CC(=O)O[C@@]12CO[C@@H]1C[C@H](O)[C@@]1(C)C(=O)[C@H](OC(=O)c3ccco3)C3=C(C)[C@@H](OC(=O)[C@H](O)[C@@H](NC(=O)OC(C)(C)C)c4cccnc4)C[C@@](O)([C@@H](OC(=O)c4ccccc4)[C@H]21)C3(C)C [Compound 2124] | < 10 |
| CCCC(=O)O[C@H]1C(=O)[C@@]2(C)[C@H]([C@H](OC(=O)c3ccccc3)[C@]3(O)C[C@H](OC(=O)[C@H](O)[C@@H](NC(=O)c4ccco4)c4cccs4)C(C)=C1C3(C)C)[C@]1(OC(C)=O)CO[C@@H]1C[C@@H]2O [Compound 3352] | < 1 |
| CC(=O)O[C@@]12CO[C@@H]1C[C@H](O)[C@@]1(C)C(=O)[C@H](OC(=O)C=C(C)C)C3=C(C)[C@@H](OC(=O)[C@H](O)[C@@H](NC(=O)OC(C)(C)C)c4ccccc4)C[C@@](O)([C@@H](OC(=O)c4ccccc4)[C@H]21)C3(C)C [Compound 2520] | < 10 |
